The values that follow come from PMC3363220, “Specific PKG inhibitors: do they really exist?” (BMC Pharmacology, 2011).

Molecules are shown by their SMILES. Where a SMILES comes first, the peptide text is derived from it. [ ]: non-standard residue; d: D form.

Assay [1] deals with platelets. Put plainly: platelet function versus PKG activity. Type of assay: cell-based. The protocol:
(§1) We tested the inhibitory effects of (D)-DT2 and DT3 on PKG and its effects on intact cells. […] It should be noted that the measured PKG concentration is about 7 µM in platelets and 0.1 – 0.5 µM in all other tested cells.

For assay [2], the system named is PKG II. As to the kind of experiment: inhibition of PKG II. Type of assay: biochemical. The conditions noted are these: up to 1 µM (D)-DT2. As for the experimental part:
as §1

The subject of assay [3] is platelets. Put plainly: aggregation of collagen-stimulated platelets. The format is cell-based. To be noted: preincubation of platelets with 10 nM (D)-DT2. As for the experimental part:
as §1

Assay [4] relates to PKA. As to the kind of experiment: PKA activity in broken platelet cell experiments. Type of assay: biochemical. To be noted: broken platelet cells; at these concentrations (starting at 5 µM, complete PKG inhibition at 20 µM). As for the experimental part:
as §1

The test system of assay [5] is platelets. Put plainly: calcium mobilization in collagen-stimulated platelets. Type of assay: cell-based. The conditions noted are these: preincubation of platelets with 10 nM (D)-DT2. The protocol:
as §1

The subject of assay [6] is PKG. As to the kind of experiment: PKG activity in broken platelet cell experiments. Type of assay: biochemical. The conditions noted are these: broken platelet cells, measured PKG concentration about 7 µM in platelets. As for the experimental part: as §1
For assay [7], the system named is platelets. As to the kind of experiment: thrombin-induced calcium mobilization in platelets. The format is cell-based. The conditions noted are these: preincubation of platelets with 10 nM (D)-DT2. As for the experimental part: as §1
In assay [8] the test system is platelets. As to the kind of experiment: thrombin-induced platelet aggregation. Type of assay: cell-based. To be noted: preincubation of platelets with 10 nM (D)-DT2. As for the experimental part:
as §1

In assay [9] the test system is PKA. Put plainly: inhibition of PKA. Type of assay: biochemical. The conditions noted are these: up to 1 µM (D)-DT2.
Assay [10] concerns PKG in intact cells. To be noted: ref [1]; cited from earlier work. The text has this: Cellular cGMP effects can be mediated by a number of effectors including cGMP-dependent protein kinases (PKGs), cGMP-stimulated phosphodiesterase (PDE2), cGMP-inhibited phosphodiesterase (PDE3), and cGMP-gated channels. Pharmacological inhibitors of PKG are often used to discriminate between these diverse cGMP effects. Currently used PKG inhibitors can be divided into three classes: cyclic nucleotide binding site inhibitors like Rp-phosphorothioate analogs, ATP binding site inhibitors like KT5823, and substrate binding site inhibitors like the recently described DT-oligopeptides. However, seve ...

For the compound `CC(C)C[C@@H](NC(=O)[C@H]1CCCN1C(=O)[C@H]1CCCN1C(=O)[C@@H](CCCNC(=N)N)NC(=O)[C@@H](CCCNC(=N)N)NC(=O)[C@@H](CCCNC(=N)N)NC(=O)[C@@H](CCC(N)=O)NC(=O)[C@@H](CCCNC(=N)N)NC(=O)[C@@H](CCCNC(=N)N)NC(=O)[C@@H](CCCCN)NC(=O)[C@@H](CCCCN)NC(=O)[C@@H](CCCNC(=N)N)NC(=O)CNC(=O)[C@H](N)Cc1ccc(O)cc1)C(=O)N[C@H](CCCNC(=N)N)C(=O)N[C@H](CCCCN)C(=O)N[C@H](CCCCN)C(=O)N[C@H](CCCCN)C(=O)N[C@H](CCCCN)C(=O)N[C@H](CCCCN)C(=O)N[C@H](Cc1c[nH]cn1)C(N)=O` [(D)-DT2] (H-[dY]G[dR][dK][dK][dR][dR][dQ][dR][dR][dR][dP][dP][dL][dR][dK][dK][dK][dK][dK][dH]-NH2; N-terminus and C-terminus assumed), the “correlation of effects on platelet function with PKG activity” value in assay [1] is given as “did not correlate with PKG activity”. In addition, in assay [2], the “inhibition of PKG II” value is “did not inhibit”. Besides, the “effect on aggregation in collagen-stimulated platelets” value in [3] is “potentiated”. Further, in assay [4], the “inhibition of PKA activity” value is on record as “observed inhibition of PKA activity”. In assay [5], the “effect on calcium mobilization in collagen-stimulated platelets” value is “potentiated”. Moreover, the “concentration giving complete inhibition of PKG activity” value in [6] (complete inhibition) is reported as 20 µM. The “concentration at which PKG inhibition starts” value in assay [6] was determined as 5 µM. In addition, the “effect on thrombin-induced calcium mobilization” value in assay [7] is “strongly inhibited”. For the same compound, the “effect on thrombin-induced platelet aggregation” value in assay [8] is “strongly inhibited”. The “inhibition of PKA” value in assay [9] was “did not inhibit”.

Consider `COC(=O)[C@@]1(OC)C[C@H]2O[C@]1(C)n1c3ccccc3c3c4c(c5c6ccccc6n2c5c31)C(=O)N(C)C4` [KT5823], for which the “PKG inhibition in intact cells” value in [10] is given as “no PKG inhibition”.
